Test results: patent US20120238488A1, “COMPOUNDS AND METHODS FOR TREATING NEOPLASIA” (priority 2009, published 2012)
Read-outs that look alike come from different tables or passages of the source.

Experiments:
[1] = tested on: DU145 (Prostate); assay: SRB assay, DU145; format: cell-based, human; conditions: for TGI / GI50: DU145, SRB, 48 h; for CC50 / GI50: Homo sapiens; for CC50: DU-145, 48 h, read-out: LC50; for GI50: DU-145
Experimental: (§1) SRB assays were performed according to standard National Cancer Institute Guidelines. Briefly, human tumor cells from different cancer panels were seeded into 96 well plates in 100 μL (plating densities ranging from 5-40,000 cells/well depending on the doubling time of individual cell lines) in serum-containing media for twenty-four hours prior to the addition of the compounds to be assayed. After 24 hours, one plate of each cell line was fixed in situ with trichloroacetic acid (TCA). The fixed slides were used to determine the cell population for each cell line at the time of drug addition (Tz). Each compound to be tested was solubilized in DMSO and the desired concentration was then added to the medium and diluted serially 1:10 to provide a total of five or ten drug concentrations plus control (in a final volume of 200 μL). The starting dose before any dilution was 100 uM for all compounds.
(§2) Following drug addition, each culture was incubated for forty-eight hours. The assay was terminated with the addition of cold TCA. The supernatant was discarded, and the plates were washed with tap water and air dried. Sulforhodamine B (SRB) solution was then added to each well. After staining, the bound stain was solubilized and the absorbance was read on an automated plate reader at a wavelength of 515 nm.
(§3) Using the absorbance measurements [time zero, (Tz), control growth, (C), and test growth in the presence of drug at the ten concentration levels (Ti)], the percentage growth was calculated at each of the drug concentrations levels. Percentage growth inhibition was calculated as:
(§4) [(Ti−Tz)/(C−Tz)]×100 for concentrations for which Ti>/=Tz
(§5) [(Ti−Tz)/Tz]×100 for concentrations for which Ti<Tz.
(§6) Three dose response parameters were calculated for each experimental agent. Growth inhibition of 50% (GI50) was calculated from [(Ti−Tz)/(C−Tz)]×100=50, which was the drug concentration resulting in a 50% reduction in the net protein increase (as measured by SRB staining) in control cells during the drug. The drug concentration resulting in total growth inhibition (TGI) was calculated from Ti=Tz. The LC50 (concentration of drug resulting in a 50% reduction in the measured protein at the end of the drug treatment as compared to that at the beginning) indicating a net loss of cells following treatment was calculated from [(Ti−Tz)/Tz]×100=−50.
(§7) Values were calculated for each of these three parameters when the level of activity was reached; however, if the effect was not reached or was exceeded, the value for that parameter was expressed as greater or less than the maximum or minimum concentration tested.
(§8) Table 4 summarizes results characterizing the effects of compound Nos. 120, 12, 61, 1, and 56 on GI50, which measures the cell growth inhibitory power of the compound, TGI, which measures cytostatic effect (TGI) and LC50, which signifies cytotoxic effect. Each of these parameters in Table 4 was calculated in a sulforhodamine B (SRB) assay, which provides a colorimetric measure of a compound's anti-cancer activity. SRB assays were performed with compounds of the invention in 22 different cell lines (shaded in light gray in Table 4), which represent nine different tumor panels (lung, melanoma, ovary, prostate, CNS, breast, pancreas colon and renal). Ouabain and digoxin were used as controls. Paclitaxel was added as a non-Na^+K^+-ATPase inhibitor control.

[2] = tested on: SKMEL28 (Melanoma); assay: SRB assay, SKMEL28; format: cell-based, human; conditions: for CC50 / GI50: Homo sapiens; for CC50: SK-MEL-28, 48 h, read-out: LC50; for GI50: SK-MEL-28; for GI50 / TGI: SKMEL28, SRB, 48 h
Experimental: as §1, §2, §3, §4, §5, §6, §7, §8

[3] = tested on: SF268 (CNS); assay: SRB assay, SF268; format: cell-based; conditions: Homo sapiens; for CC50: read-out: LC50; for IC (TGI): read-out: TGI
Experimental: as §1, §2, §3, §4, §5, §6, §7, §8

[4] = tested on: OVCAR3 (Ovary); assay: SRB assay, OVCAR3; format: cell-based, human; conditions: for CC50 / GI50: Homo sapiens; for CC50: OVCAR-3, 48 h, read-out: LC50; for GI50: OVCAR-3; for GI50 / TGI: OVCAR3, SRB, 48 h
Experimental: as §1, §2, §3, §4, §5, §6, §7, §8

[5] = tested on: OVCAR5 (Ovary); assay: SRB assay, OVCAR5; format: cell-based, human; conditions: for CC50 / GI50: Homo sapiens; for CC50: OVCAR-5, 48 h, read-out: LC50; for GI50: OVCAR-5; for GI50 / TGI: OVCAR5, SRB, 48 h
Experimental: as §1, §2, §3, §4, §5, §6, §7, §8

[6] = tested on: A549 (Lung); assay: SRB assay, A549; format: cell-based, human; conditions: for TGI / GI50: A549, SRB, 48 h; for CC50 / GI50: Homo sapiens; for CC50: A549, 48 h, read-out: LC50
Experimental: as §1, §2, §3, §4, §5, §6, §7, §8

[7] = tested on: ADRRES (Ovary); assay: SRB assay, ADRRES (multidrug resistant NCI-ADR-RES); format: cell-based, human; conditions: for TGI / GI50: ADRRES; for TGI / CC50 / GI50: 48 h; for CC50 / GI50: Homo sapiens, NCI/ADR-RES; for CC50: read-out: LC50
Experimental: NCI-ADR-RES cells have been classified as ovarian cancer cells by the National Cancer Institute.
as §1, §2, §3, §4, §5, §6, §7, §8
Table 4 also presents results with Compound Nos. 120, 12, 61, 1, and 56 in a well characterized drug resistant cell line, NCI-ADR-RES, that expresses high levels of MDR1 and P-glycoprotein.

[8] = tested on: PCJ (Prostate); assay: SRB assay, PCJ; format: cell-based; conditions: Homo sapiens, 48 h; for CC50: read-out: LC50; for GI50 / IC (TGI): PCJ, SRB
Experimental: as §1, §2, §3, §4, §5, §6, §7, §8

[9] = tested on: CAKJ1 (Renal); assay: SRB assay, CAKJ1; format: cell-based, human; conditions: 48 h; for TGI / GI50: CAKJ1, SRB; for CC50 / GI50: Homo sapiens; for CC50: read-out: LC50
Experimental: as §1, §2, §3, §4, §5, §6, §7, §8

[10] = tested on: HCT116 (Colon); assay: SRB assay, HCT116; format: cell-based; conditions: Homo sapiens; for CC50: HCT-116, 48 h, read-out: LC50; for GI50 / IC (TGI): HCT-116, HCT116, SRB, 48 h
Experimental: as §1, §2, §3, §4, §5, §6, §7, §8

[11] = biological target: Na+/K+-ATPase (Adenosine 5′-Triphosphatase isolated from porcine cerebral cortex); assay: Na+/K+-ATPase inhibitory activity, colorimetric Adenosine 5'-Triphosphatase Enzymatic Assay; format: biochemical; conditions: for IC50: read-out: Na+K+ ATPase inhibitory activity IC50
Experimental: The inhibitory effect of a compound of the invention on ATPase activity was assessed in vitro using the colorimetric Adenosine 5′-Triphosphatase Enzymatic Assay of Sigma (St. Louis, Mo.) according to the manufacturer's instructions. This assay utilizes Adenosine 5′-Triphosphatase isolated from porcine cerebral cortex. Each reaction was performed in a final volume of 250 μl using 0.5 units/ml enzyme in the presence of different inhibitors. […] IC50 values were determined using the Origin® program software (OriginLab, Northampton, Mass.).

[12] = tested on: MB435 (Melanoma); assay: SRB assay, MB435; format: cell-based, human; conditions: 48 h; for CC50 / GI50: Homo sapiens; for CC50: read-out: LC50; for GI50 / TGI: MB435, SRB
Experimental: as §1, §2, §3, §4, §5, §6, §7, §8

[13] = tested on: ERVK (Lung); assay: SRB assay, ERVK; format: cell-based, human; conditions: 48 h; for TGI / GI50: ERVK, SRB; for CC50 / GI50: Homo sapiens; for CC50: read-out: LC50
Experimental: as §1, §2, §3, §4, §5, §6, §7, §8

Structure (SMILES) | TGI [1] [nM] | CC50 [1] [nM] | GI50 [1] [nM] | CC50 [2] [nM] | GI50 [2] [nM] | TGI [2] [nM] | CC50 ([3]; SF-268, 48 h) [nM] | CC50 [4] [nM] | GI50 [4] [nM] | TGI [4] [nM] | CC50 [5] [nM] | GI50 [5] [nM] | TGI [5] [nM] | TGI [6] [nM] | CC50 [6] [nM] | GI50 [6] [nM] | TGI ([7]; SRB) [nM] | CC50 [7] [nM] | GI50 ([7]; SRB) [nM] | CC50 [8] [nM] | other results
C[C@H]1O[C@@H](O[C@H]2[C@@H](O)C[C@H](O[C@H]3[C@@H](O)C[C@H](O[C@H]4CC[C@@]5(C)[C@H](CC[C@@H]6[C@@H]5C[C@@H](O)[C@]5(C)[C@@H](C7=CC(=O)OC7)CC[C@]65O)C4)O[C@@H]3C)O[C@@H]2C)C[C@H](O)[C@@H]1O [Digoxin, reference compound] | 70 | 360 | 30 | > 100000 | 80 | 6500 | 100 | 22200 | < 10 | 2650 | 840 | < 10 | 430 | 60 | 1140 | < 1 | 100 | 750 | 40 | 300 | GI50 ([3]; SF-268, 48 h): < 80 nM; IC (TGI) ([3]; SF-268, 48 h): < 80 nM; GI50 [8]: < 80 nM; IC (TGI) [8]: 100 nM; TGI [9]: 70 nM; CC50 [9]: 200 nM; GI50 [9]: < 10 nM; CC50 [10]: > 50000 nM; GI50 [10]: < 80 nM; IC (TGI) [10]: 700 nM; IC50 [11]: 204 nM; CC50 [12]: 7690 nM; GI50 [12]: 70 nM; TGI [12]: 530 nM; TGI [13]: 90 nM; CC50 [13]: 680 nM; GI50 [13]: < 10 nM
C[C@]12CCC(=NOC3CCNC3)CC1CCC1C2CC[C@]2(C)C(=O)CCC12 (stereo partly drawn) [Compound 56, (10S,13S)-10,13-dimethyl-3-(pyrrolidin-3-yloxyimino)tetradecahydro-1H-cyclopenta[a]phenanthren-17(2H)-one] | 22 | 70.6 | 5 | 3740 | 40.9 | 225.3 | 810 | 170 | 2.9 | 11.4 | 740 | 74.9 | 341.1 | 4 | 8.2 | < 1 | 49.1 | 90.8 | 9.3 | 936 | GI50 ([3]; SF-268, SF268, SRB, 48 h, read-out: GI50): 56.7 nM; IC (TGI) ([3]; SF-268, SF268, SRB, 48 h): 349 nM; anti-tumor action in multidrug resistant cell line NCI-ADR-RES ([7]; SRB, cells express high levels of MDR1 and P-glycoprotein): potent anti-tumor action; GI50 [8]: 33.2 nM; IC (TGI) [8]: 387 nM; TGI [9]: 26.5 nM; CC50 [9]: 172 nM; GI50 [9]: < 1 nM; CC50 [10]: 762 nM; GI50 [10]: 5.8 nM; IC (TGI) [10]: 70.5 nM; Na+K+ ATPase inhibitory activity (in words) [11]: very potent Na+K+ ATPase inhibitors; IC50 [11]: 101 nM; CC50 [12]: 668 nM; GI50 [12]: 48.5 nM; TGI [12]: 218.2 nM; TGI [13]: 62.8 nM; CC50 [13]: 288 nM; GI50 [13]: 17.9 nM
